# Values quoted from earlier work in patent US20110092597A1, “METHOD FOR TREATING HERPES VIRUS INFECTION” (priority 2009, published 2011).
# How the values were obtained:
# [1] = not given; remark: listed apart in the source
Solubility in water,Bioavailability [1],SMILES
relatively low,–,"O=C(O)Cc1ccccc1Nc1c(Cl)cccc1Cl [Diclofenac, 2-(2,6-dichloro-anilino)-phenyl-acetic acid]"
poorly soluble,low,"Nc1nc2c(ncn2COCCO)c(=O)[nH]1 [acyclovir, acycloguanosine]"
